Results on 75 compounds are retold here after patent publication US7186831B2, “5-halo-2-alkyl[1,2,4]triazolo[1,5-a]pyrimidin-7-amines” (priority 2001, dated 2007).

This series in a line: log P by HPLC. It counts as physicochemical.
[1] abbreviates: HPLC, gradient method, acetonitrile/0.1% aqueous phosphoric acid, EEC directive 79/831 Annex V. A8.
Where [2] appears, read: EEC directive 79/831 Annex V. A8 by HPLC (gradient method, acetonitrile/0.1% aqueous phosphoric acid).

One may read the logP as a log measure of how a compound divides between an organic and an aqueous phase. A low value points to a more hydrophilic compound. As to `CCNc1c(-c2c(F)cc(F)cc2F)c(Cl)nc2nc(C(F)(F)F)nn12` [compound 102], under setting [1], the logP is 3.5. Same read-out and setting: to `Cc1nc2nc(Cl)c(-c3ccccc3Cl)c(NC(C)CC(C)C)n2n1` (stereo not drawn) [compound 218] belongs 3.84. On the same count and under the same terms, to `CCCN(CC1CC1)c1c(-c2c(F)cc(F)cc2F)c(Cl)nc2nc(C)nn12` [compound 162] belongs 4.08. The same measure, in the same setting: the value for `CC1C=CC(C)N1c1c(-c2c(F)cc(F)cc2F)c(Cl)nc2nc(C3CC3)nn12` (stereo not drawn) [compound 582] was 4.17; that for `CN(C)Nc1c(-c2ccc(F)cc2Cl)c(Cl)nc2nc(C3CC3)nn12` [compound 619] was 3.29. Consider `Cc1nc2nc(Cl)c(-c3c(F)cccc3F)c(NC3CCCCC3C(F)(F)F)n2n1` (stereo not drawn) [compound 425], for which the log partition coefficient (logP) under setting [2] is listed as 3.52. Compound `Fc1ccc(Nc2c(-c3ccc(F)cc3F)c(Cl)nc3nc(C(F)(F)F)nn23)cc1` [compound 814] gave a logP under setting [1] of 3.69. Same read-out and setting: to `CC1CCCCN1c1c(-c2c(F)cccc2F)c(Cl)nc2nc(C3CC3)nn12` (stereo not drawn) [compound 680] belongs 3.17; to `CCC(C)ONc1c(-c2c(F)cccc2F)c(Cl)nc2nc(C)nn12` (stereo not drawn) [compound 139], 2.78; to `CC1CCCN(c2c(-c3ccc(F)cc3F)c(Cl)nc3nc(C4CC4)nn23)C1` (stereo not drawn) [compound 612], 4.37.

Take `Cc1nc2nc(Cl)c(-c3c(F)cccc3F)c(NOC(C)C)n2n1` [compound 144]: under setting [1], the log partition coefficient (logP) was determined as 2.46. The same measure, in the same setting: to `Cc1nc2nc(Cl)c(-c3c(F)cccc3Cl)c(NC(C)C(F)(F)F)n2n1` (stereo not drawn) [compound 132] belongs 3.01; to `Cc1nc2nc(Cl)c(-c3ccc(F)cc3F)c(N3OCCC3C)n2n1` (stereo not drawn) [compound 695], 2.79. The compound `Cc1nc2nc(Cl)c(-c3c(F)cccc3F)c(N(C)C)n2n1` [compound 418] displayed a logP under setting [2] of 2.37.

`CCN(Cc1ccco1)c1c(-c2ccc(F)cc2F)c(Cl)nc2nc(C(F)(F)F)nn12` [compound 549] gave a lipophilicity (logP) under setting [1] of 4.42. The compound `Cc1nc2nc(Cl)c(-c3ccc(F)cc3F)c(NC(C)CC(C)C)n2n1` (stereo not drawn) [compound 301] gave a log partition coefficient (logP) under setting [2] of 3.7.

Under setting [1], `CC1CN(c2c(-c3ccc(F)cc3F)c(Cl)nc3nc(C(F)(F)F)nn23)CC(C)O1` (stereo not drawn) [compound 808] showed a log partition coefficient (logP) of 4.1. Take `CC(C)CNc1c(-c2c(F)cccc2Cl)c(Cl)nc2nc(C3CC3)nn12` [compound 476]: the logP under setting [2] is on record as 3.64. In the case of `CCN(CC)c1c(-c2c(F)cccc2Cl)c(Cl)nc2nc(C)nn12` [compound 252], under setting [1], the logP came out at 3.33.

In the case of `CCCCN(CC)c1c(-c2ccccc2Cl)c(Cl)nc2nc(C)nn12` [compound 241], the logP under setting [1] is 4.1. Same read-out and setting: the value for `CCOC(=O)CN(CC)c1c(-c2c(F)cc(F)cc2F)c(Cl)nc2nc(C)nn12` [compound 160] was 3.14; that for `CCN(CC1CCCO1)c1c(-c2ccccc2Cl)c(Cl)nc2nc(C)nn12` (stereo not drawn) [compound 239] was 3.23; that for `Cc1nc2nc(Cl)c(-c3c(F)cc(F)cc3F)c(N3CCC(C)CC3)n2n1` [compound 166] was 3.9. Consider `Cc1nc2nc(Cl)c(-c3ccccc3F)c(NCC(F)(F)F)n2n1` [compound 391], for which the lipophilicity (logP) under setting [2] worked out at 2.53. `Cc1nc2nc(Cl)c(-c3ccccc3Cl)c(N3CCSCC3)n2n1` [compound 235] gave a logP under setting [1] of 3.09. The same measure, in the same setting: the value for `Cc1nc2nc(Cl)c(-c3c(F)cc(F)cc3F)c(N3CC=CCC3)n2n1` [compound 83] was 3.2; that for `C#CCN(C)c1c(-c2ccc(F)cc2F)c(Cl)nc2nc(C(F)(F)F)nn12` [compound 539] was 3.65. For the compound `CC1CN(c2c(-c3c(F)cc(F)cc3F)c(Cl)nc3nc(C(F)(F)F)nn23)CC(C)O1` (stereo not drawn) [compound 101], the logP under setting [1] is on record as 4.18. The same measure, in the same setting: the value for `C#CCN(C)c1c(-c2ccccc2Cl)c(Cl)nc2nc(C)nn12` [compound 237] was 2.75; that for `CN(CCCl)c1c(-c2ccc(F)cc2F)c(Cl)nc2nc(C3CC3)nn12` [compound 721] was 3.5.

The compound `Fc1cccc(F)c1-c1c(Cl)nc2nc(C3CC3)nn2c1N1CCCCO1` [compound 753] gave a log partition coefficient (logP) under setting [1] of 3.47. Take `Cc1nc2nc(Cl)c(-c3ccc(F)cc3F)c(N(C)Cc3ccco3)n2n1` [compound 204]: the logP under setting [1] was 3.1. Still for that read-out and setting: the value for `CCOC(=O)CN(CC)c1c(-c2ccc(F)cc2F)c(Cl)nc2nc(C3CC3)nn12` [compound 595] was 3.54. Compound `Cc1nc2nc(Cl)c(-c3c(F)cccc3F)c(NOCc3ccccc3Cl)n2n1` [compound 431] returned a logP under setting [2] of 3.13. The same measure, in the same setting: the value for `Fc1cc(F)c(-c2c(Cl)nc3nc(C4CC4)nn3c2N2CCCCN2)c(F)c1` [compound 487] was 3.42.

Under setting [1], `CCc1nc2nc(Cl)c(-c3c(F)cc(F)cc3F)c(N3CC(C)OC(C)C3)n2n1` (stereo not drawn) [compound 71] displayed a logP of 3.57. On the same count and under the same terms, to `Cc1nc2nc(Cl)c(-c3ccc(Cl)cc3Cl)c(N(N)CC(C)C)n2n1` [compound 816] belongs 3.71. Compound `CON(C)c1c(-c2ccccc2F)c(Cl)nc2nc(C)nn12` [compound 377] had a logP under setting [2] of 2.5. Same read-out and setting: the value for `CCOC(=O)CN(C)c1c(-c2c(F)cccc2Cl)c(Cl)nc2nc(C)nn12` [compound 272] was 2.48. As for `Fc1ccc(-c2c(Cl)nc3nc(C4CC4)nn3c2N2CC=CCC2)c(F)c1` [compound 608], the logP under setting [1] stood at 3.72. Same read-out and setting: the value for `CC(Nc1c(-c2ccc(F)cc2Cl)c(Cl)nc2nc(C3CC3)nn12)C(F)(F)F` (racemic) [compound 748] was 3.77. Under setting [1], `C=C(C)CNc1c(-c2ccccc2Cl)c(Cl)nc2nc(C)nn12` [compound 217] yielded a logP of 2.83. On the same count and under the same terms, to `CCN(CCOC)c1c(-c2ccc(F)cc2Cl)c(Cl)nc2nc(C3CC3)nn12` [compound 631] belongs 3.81; to `CCc1nc2nc(Cl)c(-c3c(F)cc(F)cc3F)c(NC3CCCC3)n2n1` [compound 75], 3.66. The same measure, in the same setting: the value for `Clc1ccccc1-c1c(Cl)nc2nc(C3CC3)nn2c1NCC1CC1(Cl)Cl` (stereo not drawn) [compound 745] was 3.78. Consider `C=C(C)CN(CC)c1c(-c2c(F)cccc2F)c(Cl)nc2nc(C)nn12` [compound 339], for which the logP under setting [2] was determined as 3.65.

For `Cc1nc2nc(Cl)c(-c3ccc(F)cc3F)c(NCCC(F)(F)F)n2n1` [compound 195], the logP under setting [1] worked out at 2.76. `CCOC(=O)CN(CC)c1c(-c2ccc(F)cc2F)c(Cl)nc2nc(C)nn12` [compound 355] yielded a logP under setting [2] of 3.04. Still for that read-out and setting: to `Cc1nc2nc(Cl)c(-c3c(F)cc(F)cc3F)c(NC(C)C3CC3)n2n1` (stereo not drawn) [compound 379] belongs 3.09.

`Fc1cccc(Cl)c1-c1c(Cl)nc2nc(C3CC3)nn2c1NC1CCCC1` [compound 479]: the logP under setting [2] is on record as 3.83. Still for that read-out and setting: the value for `CCC(C)Nc1c(-c2c(F)cccc2Cl)c(Cl)nc2nc(C)nn12` (stereo not drawn) [compound 264] was 3.14; that for `Cc1nc2nc(Cl)c(-c3c(F)cccc3F)c(NC(C)CC(C)C)n2n1` (stereo not drawn) [compound 330] was 3.55. Under setting [2], `CCN(Cc1ccco1)c1c(-c2ccc(F)cc2F)c(Cl)nc2nc(C)nn12` [compound 354] returned a logP of 3.39.

For the compound `Cc1nc2nc(Cl)c(-c3ccc(F)cc3F)c(N3CCCC(C)C3)n2n1` (stereo not drawn) [compound 286], the lipophilicity (logP) under setting [2] worked out at 3.74. For `Cc1nc2nc(Cl)c(-c3c(F)cccc3F)c(N3CCCC(O)C3)n2n1` (stereo not drawn) [compound 314], the log partition coefficient (logP) under setting [2] stood at 2.03. In turn, `Fc1cc(F)c(-c2c(Cl)nc3nc(C(F)(F)F)nn3c2N2CCCC2)c(F)c1` [compound 103] registered a logP under setting [1] of 3.92.

The compound `Fc1cccc(Cl)c1-c1c(Cl)nc2nc(C3CC3)nn2c1N1CCCC1C(F)(F)F` (stereo not drawn) [compound 703] yielded a log partition coefficient (logP) under setting [1] of 4.1. The compound `CC(C)(C)OC(=O)NC1CCN(c2c(-c3ccc(F)cc3F)c(Cl)nc3nc(C4CC4)nn23)CC1` [compound 514] came in with a logP under setting [2] of 3.78.

Regarding `Cc1nc2nc(Cl)c(-c3c(F)cccc3Cl)c(N3CCC(C(F)(F)F)CC3)n2n1` [compound 261], the logP under setting [2] was 3.72.

Turning to `Cc1nc2nc(Cl)c(-c3ccc(F)cc3F)c(N(C)CCC#N)n2n1` [compound 411], the logP under setting [2] is reported as 2.34. Still for that read-out and setting: to `C=C(C)CN(CC)c1c(-c2c(F)cc(F)cc2F)c(Cl)nc2nc(C3CC3)nn12` [compound 448] belongs 4.49. Under setting [1], `CC1CC(C)CN(c2c(-c3ccc(F)cc3F)c(Cl)nc3nc(C4CC4)nn23)C1` (stereo not drawn) [compound 610] yielded a log partition coefficient (logP) of 4.72. Still for that read-out and setting: to `COC(=O)C1CCCCN1c1c(-c2ccc(F)cc2F)c(Cl)nc2nc(C(F)(F)F)nn12` (stereo not drawn) [compound 804] belongs 4.32.

For `CCN(Cc1ccco1)c1c(-c2ccccc2Cl)c(Cl)nc2nc(C)nn12` [compound 404], under setting [2], the logP turned out to be 3.56.

Under setting [2], `Cc1nc2nc(Cl)c(-c3c(F)cc(F)cc3F)c(NC(C)C(C)C)n2n1` (stereo not drawn) [compound 506] yielded a log partition coefficient (logP) of 3.35. On the same count and under the same terms, to `Fc1cccc(Cl)c1-c1c(Cl)nc2nc(C3CC3)nn2c1N1CCCCO1` [compound 486] belongs 3.74.

Turning to `CC(C)CNc1c(-c2ccc(F)cc2F)c(Cl)nc2nc(C3CC3)nn12` [compound 644], the logP under setting [1] is 3.38. The same measure, in the same setting: the value for `C=C(C)CN(CC)c1c(-c2c(F)cccc2F)c(Cl)nc2nc(C3CC3)nn12` [compound 752] was 4.31. Take `Cc1nc2nc(Cl)c(-c3ccccc3F)c(NC3CC(C(F)(F)F)CC(C(F)(F)F)C3)n2n1` (stereo not drawn) [compound 399]: the lipophilicity (logP) under setting [2] amounted to 3.73. On the same count and under the same terms, to `Cc1nc2nc(Cl)c(-c3ccccc3F)c(NC(C)C)n2n1` [compound 386] belongs 2.63. As for `CONc1c(-c2ccccc2F)c(Cl)nc2nc(C)nn12` [compound 376], the log partition coefficient (logP) under setting [2] stood at 2.03. For the compound `Cc1nc2nc(Cl)c(-c3c(F)cccc3Cl)c(N3CCCCC3)n2n1` [compound 254], the logP under setting [1] is reported as 3.55. The same measure, in the same setting: the value for `CCc1nc2nc(Cl)c(-c3c(F)cc(F)cc3F)c(N3CCSCC3)n2n1` [compound 80] was 3.53. For the compound `Cc1nc2nc(Cl)c(-c3c(F)cccc3Cl)c(N3CCCC(C)C3)n2n1` (stereo not drawn) [compound 302], the logP under setting [2] came out at 3.99. `Fc1ccc(-c2c(Cl)nc3nc(C4CC4)nn3c2NC2CCCC(C(F)(F)F)C2)c(F)c1` (stereo not drawn) [compound 658] registered a logP under setting [1] of 3.98.
